Here are results for 9 compounds from PubChem BioAssay (NCI).

Test in all cases: NCI tumour cell line growth inhibition, 48 h
In assay [1] the test system is SNB-75 CNS.
The subject of assay [2] is OVCAR-4 ovarian.
Assay [3] has as its system U251 CNS.
Assay [4] deals with HL-60(TB) leukemia.
Assay [5] has as its system IGROV1 ovarian.
Assay [6] has as its system OVCAR-3 ovarian.
For assay [7], the system named is SF-539 CNS.
Assay [8] deals with ACHN renal.
In assay [9] the test system is HS 578T breast.
The subject of assay [10] is MALME-3M melanoma.

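96-well plates; 48 h exposure; 5 concentrations. Endpoints by linear interpolation between flanking doses. Not reached: highest tested concentration assigned. At the GI50, growth is halved. TGI: total growth inhibition.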 Bounds are passed on as bounds.

Consider `Cn1c(=O)c2c(ncn2CN2CCN(Cn3cnc4c3c(=O)n(C)c(=O)n4C)CC2)n(C)c1=O`, for which the TGI was greater than 100 µM in assay [1]; greater than 100 µM in assay [2]; greater than 100 µM in [3]; 54 µM in assay [4]; greater than 100 µM in assay [5]; greater than 100 µM in [6]. Besides, the TGI in assay [7], in assay [8], in assay [9] and in [10] was greater than 100 µM each time.
In the case of `Cc1ccc(NC(=O)Cn2c(Br)nc3c2c(=O)n(C)c(=O)n3C)cc1`, the GI50 in assay [1] was 1.43 µM; in [2] it was 2.1 µM; in assay [3], 2.26 µM; in assay [4] it was greater than 100 µM; in assay [5] it was 5 µM; in assay [6], 2.31 µM. For the same compound, the GI50 in [7] is 1.94 µM; in assay [8] it was 2.8 µM; in assay [9], 3.43 µM; in [10] it was 2.33 µM. The TGI in [1] is 3.95 µM; in [2], 4.57 µM; in assay [3] it was 5.75 µM; in assay [4] it was greater than 100 µM; in assay [5] it was 17.4 µM; in assay [6], 5.35 µM. Besides, the TGI in assay [7] was 4.21 µM; in [8], 8.12 µM; in [9], 14.9 µM; in [10] it was 7.01 µM.
With `Cn1cc(CNCC2CCN(c3ncc(C(=O)NO)cn3)CC2)c2ccccc21`, the GI50 in [1] was less than 0.0108 µM; in assay [2], 0.0155 µM; in [3], 0.0133 µM; in assay [4] it was 0.0242 µM; in [5], 0.0245 µM; in assay [6] it was 0.0158 µM. The GI50 is 0.021 µM in [7], 0.0229 µM in [8], 0.0185 µM in assay [9] and less than 0.01 µM in assay [10]. For the same compound, the TGI in assay [1] came out at 8.62 µM; in assay [2], 52.1 µM; in assay [3], 0.128 µM; in assay [4], 17.5 µM; in [5] it was 0.352 µM; in assay [6], 0.126 µM. For the same compound, the TGI in [7] came out at 13.4 µM; in assay [8] it was 0.0962 µM; in assay [9] it was 42.6 µM; in assay [10], 15.2 µM.
For the compound `O=C1CC(=O)OC(c2ccc([N+](=O)[O-])cc2)O1`, the GI50 in assay [1] was 1.44 µM; in [2], 2.82 µM; in [3], 1.61 µM; in [4] it was 2.01 µM; in [5] it was 3.1 µM; in [6], 1.77 µM. Besides, the GI50 is 1.98 µM in [7], 1.68 µM in assay [8], 2.7 µM in assay [9] and 2.28 µM in assay [10]. For the same compound, the TGI in assay [1] stood at 3.12 µM; in assay [2] it was 8.91 µM; in [3] it was 3.11 µM; in assay [4], 5.51 µM; in [5] it was 14.3 µM; in assay [6], 3.37 µM. Moreover, the TGI was 4.3 µM in assay [7], 3.16 µM in assay [8], 11.9 µM in assay [9] and 7.02 µM in [10].
As to `O=C1CCCN1CC#CCN1CCCC1`, the GI50 in assay [1], in assay [2], in [3], in [4], in assay [5] and in assay [6] was greater than 100 µM throughout. In addition, the GI50 in assay [7], in assay [8], in [9] and in assay [10] was greater than 100 µM in each case. Also, the TGI in assay [1], in assay [2], in assay [3], in assay [4], in [5] and in assay [6] was greater than 100 µM throughout. In addition, the TGI in assay [7], in assay [8], in assay [9] and in assay [10] was greater than 100 µM throughout.
Regarding `CCN1CSC(=S)N(CC)C1`, the TGI is greater than 100 µM in [1]; greater than 100 µM in assay [2]; greater than 100 µM in [3]; 47.4 µM in assay [4]; greater than 100 µM in [5]; greater than 100 µM in assay [6]. For the same compound, the TGI in [7] was 76 µM; in [8], greater than 100 µM; in assay [9] it was greater than 100 µM; in [10], greater than 100 µM.
For `COc1ccc(Cl)cc1Nc1nc(C(F)(F)F)ccc1C(=O)N/N=C/c1cc(OC)c(OC)c(OC)c1`, the GI50 in assay [1] is 2.19 µM; in assay [2], 1.32 µM; in [3] it was 1.75 µM; in [4], 2.21 µM; in [5], 0.346 µM; in [6], 0.449 µM. Besides, the GI50 in assay [7] is 1.51 µM; in [8] it was 3.28 µM; in [9], 1.94 µM; in [10], 1.07 µM. Also, the TGI in assay [1] was 9.8 µM; in assay [2] it was greater than 100 µM; in assay [3], 15.1 µM; in assay [4], 5.77 µM; in assay [5] it was 2.3 µM; in assay [6] it was greater than 100 µM. Further, the TGI in [7] turned out to be 3.2 µM; in [8], 11.3 µM; in assay [9], 4.67 µM; in assay [10] it was 4.05 µM.
Regarding `CC1CCN(CC(=O)N2c3ccccc3Sc3cc4ccccc4cc32)CC1`, the TGI in assay [1], in [2], in assay [3], in assay [4], in [5] and in assay [6] was greater than 100 µM throughout. Besides, the TGI in assay [7], in assay [8], in assay [9] and in assay [10] was greater than 100 µM each time.
Regarding `O=Cc1ccc(-c2cccs2)s1`, the TGI was greater than 100 µM in assay [1]; greater than 77 µM in [2]; greater than 93.8 µM in assay [3]; greater than 68.1 µM in assay [4]; 47.4 µM in assay [5]; 58.1 µM in assay [6]. Besides, the TGI was greater than 100 µM in assay [7], greater than 100 µM in [8], 98 µM in assay [9] and greater than 100 µM in assay [10].
